In patent US10106532B2, “Inhibitors of beta-hydroxylase for treatment of cancer” (MIDWESTERN UNIVERSITY, priority 2012, dated 2018):
Entries after “also recorded” stand apart in the source; their conditions may differ.

Columns and labels:
[1] = test system: HPAFH AsPC-1 human PC cell line; assay: subcutaneous pancreatic cancer tumor growth in nude mice; assay type: in vivo
Protocol: FIG. 4A is a line graph showing tumor volume, and FIG. 4B is a bar graph showing tomor weight. […] There were 15 nude mice in each group. i.p. injection (20 mg/kg/mouse). Vertical bars; standard error.
The HPAFH AsPC-1 human PC cell line which expresses a high level of ASPH was implanted (5×10^6 cells s.c.) into the back of nude mice. Tumors were allowed to grow to approximately 100 mm^3 after one week, and MO-1-1100 was then administered intraperitoneal (i.p.) at a concentration of 50 mg/kg. The treatment regimen as shown in FIGS. 4A-B included i.p. injections on a daily basis for five days followed by every other day until the experiment was terminated due to the large size of tumors observed in the control group that received a DMSO vehicle injection. […] There were 15 nude mice in each group (control vs. treatment).

ASPH = molecular target: T1, ASPH (Homo sapiens, UniProt Q12797); assay: binding to ASPH by isothermal titration calorimetry
T1 sequence (Q12797 1-758): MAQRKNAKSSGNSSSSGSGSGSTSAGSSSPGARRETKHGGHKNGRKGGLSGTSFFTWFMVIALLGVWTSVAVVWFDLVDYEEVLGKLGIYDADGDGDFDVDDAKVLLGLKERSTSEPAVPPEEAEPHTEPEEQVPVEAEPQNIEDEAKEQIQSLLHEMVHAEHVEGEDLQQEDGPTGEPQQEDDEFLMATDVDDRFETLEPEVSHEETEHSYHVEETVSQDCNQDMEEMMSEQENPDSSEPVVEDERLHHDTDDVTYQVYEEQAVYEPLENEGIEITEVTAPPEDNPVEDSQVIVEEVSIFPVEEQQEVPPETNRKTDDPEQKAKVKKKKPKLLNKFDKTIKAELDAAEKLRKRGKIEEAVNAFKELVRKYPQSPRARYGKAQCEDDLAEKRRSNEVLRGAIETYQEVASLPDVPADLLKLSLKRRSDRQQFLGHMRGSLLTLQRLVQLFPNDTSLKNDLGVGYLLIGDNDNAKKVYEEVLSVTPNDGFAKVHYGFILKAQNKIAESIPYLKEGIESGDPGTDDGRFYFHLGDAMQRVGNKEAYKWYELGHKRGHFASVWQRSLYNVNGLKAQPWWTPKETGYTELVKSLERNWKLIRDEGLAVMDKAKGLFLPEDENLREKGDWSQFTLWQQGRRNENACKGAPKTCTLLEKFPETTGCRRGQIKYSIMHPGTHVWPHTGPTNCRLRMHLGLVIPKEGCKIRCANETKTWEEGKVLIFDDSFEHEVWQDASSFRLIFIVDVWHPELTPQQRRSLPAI
Description: In the second step arylhydroxytetronimide was sulfonylated with phenylmethansulfonyl chloride in dry tetrahydrofuran to yield compounds of formula 1 (shown below). Compounds were characterized by 1H and 13C nuclear magnetic resonance, high resolution mass spectroscopy, high performance liquid chromatography, infra-red spectroscopy, melting point, elemental analysis and binding to ASPH by isothermal titration calorimetry.
Candidate parent compounds were selected as inhibitors for β-hydroxylase activity based on crystal structure of the catalytic site in the C-terminal region of ASPH and computer assisted drug design.

FOCUS HCC cells = assay: colony formation assay; assay type: cell-based, human; settings: 5 μM
Protocol: (§1) A MTT assay was performed to evaluate the effect of MO-1-1100 on cell proliferation and viability. MTT is reduced to purple formazan in living cells. FOCUS cells were used as a high ASPH expressing human HCC cell line. […] The MTT assay measures cellular metabolic activity via NAD(P)H-dependent cellular oxidoreductase enzymes. […] In order to evaluate the effect of long-term exposure of MO-1-1100, the colony formation assay (an assay of malignant potential and phenotype) in which cells were treated with inhibitor for 3 weeks was performed.

Huh7 = assay: cell viability; assay type: cell-based, human; settings: 5 μM
FOCUS = assay: cell viability; assay type: cell-based, human; settings: 5 μM
Protocol: as §1

NC1=C(OS(=O)(=O)Cc2ccccc2)C(=O)C(c2ccc(Cl)cc2)O1 (racemic) [MO-1-1100]
HPAFH tumor formation, growth rate ([1]; i.p. 50 mg/kg, daily for five days followed by every other day): substantial inhibition | PC tumor growth (tumor volume, tumor weight) ([1]; i.p. injection (20 mg/kg/mouse), FIG. 4 legend): anti-tumor effect | ASPH binding (ASPH): confirmed to demonstrate ASPH binding | colony formation (FOCUS HCC cells): reduced colony formation; also recorded: strikingly inhibited | colony formation, inhibition rate (FOCUS HCC cells; 3 weeks): 36.8% | cell viability, inhibition rate (Huh7): 50% | cell viability, inhibition rate (FOCUS): 37.9%
